{"source": "patent US20110065706A1", "about": "“Therapeutic Agents 812” (AstraZeneca AB, priority 2009, published 2011)"}
{"target": "T1, human GPR119 (Homo sapiens, UniProt Q8TDV5)", "T1 construct": "expressed in transfected cells; host or cells: HEK 293s", "T1 sequence (Q8TDV5 1-335)": "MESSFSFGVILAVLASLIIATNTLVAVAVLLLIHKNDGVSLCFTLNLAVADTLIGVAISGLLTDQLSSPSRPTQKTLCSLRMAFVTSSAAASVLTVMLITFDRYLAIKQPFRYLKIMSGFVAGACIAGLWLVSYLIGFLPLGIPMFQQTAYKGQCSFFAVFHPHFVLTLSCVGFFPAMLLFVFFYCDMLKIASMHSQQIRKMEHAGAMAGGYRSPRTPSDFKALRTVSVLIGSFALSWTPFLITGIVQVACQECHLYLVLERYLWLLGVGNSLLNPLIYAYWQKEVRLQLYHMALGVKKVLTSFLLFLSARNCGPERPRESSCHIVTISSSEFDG", "experiment": "Cyclic AMP (HTRF cAMP) assay for human GPR119, Method A", "assay_type": "cell-based", "conditions": "HEK293S, 0.75 h; Method A; HEK 293s cells over-expressing human GPR119; percent effect at top concentration 30 μM relative to maximum (50 μM Oleoylethanolamide) and minimum (1% DMSO) controls", "units": {"activation at 30 µM": "%"}}
{"smiles": "CC(C)(C)OC(=O)N1CCN(c2ncc(OCc3ccc(C(=O)N4CCNCC4)cc3)cn2)CC1", "note": "[Example 50, tert-butyl 4-(5-(4-(piperazine-1-carbonyl)benz-yloxy)pyrimi-din-2-yl)piperazine-1-carboxylate]", "activation at 30 µM": 23}
{"smiles": "CC(C)(C)OC(=O)N1CCN(c2ncc(OCc3ccc(C(=O)N4CCOCC4)cc3)cn2)CC1", "note": "[Example 53]", "activation at 30 µM": 44}
{"smiles": "CC(OC(=O)N1CCN(c2ncc(OCc3ccc(S(C)(=O)=O)cc3)cn2)[C@H](C)C1)C(F)(F)F", "note": "(stereo partly drawn) [Example 67, (3R)-1,1,1-trifluoropropan-2-yl 3-methyl-4-(5-(4-(methylsulfonyl)benzyloxy)pyrim-idin-2-yl)piperazine-1-carboxylate]", "activation at 30 µM": 60}
{"smiles": "CC(C)c1nc(N2CCN(c3ncc(OCc4ccc(S(C)(=O)=O)cc4)cn3)[C@H](C)C2)no1", "note": "[Example 89]", "activation at 30 µM": 73}
{"smiles": "Cc1cc(COc2cnc(N3CCN(C(=O)OC(C)(C)C)CC3)nc2)ccc1C(=O)NC(C)(C)C", "note": "[Example 55, tert-butyl 4-(5-(4-(tert-butylcarbamoyl)-3-methylbenzyl-oxy)pyrimidin-2-yl)piperazine-1-carboxylate]", "activation at 30 µM": 65}
{"smiles": "CS(=O)(=O)c1ccc(COc2cnc(N3CCN(c4noc(C(F)(F)F)n4)CC3)nc2)cc1", "note": "[Example 88, 3-(4-(5-(4-(methylsulfonyl)bcnzyloxy)pyrimidin-2-yl)pipcrazin-1-yl)-5-(trifluoromcthyl)-1,2,4-oxadiazole]", "activation at 30 µM": 79}
{"smiles": "CC(C)(C)OC(=O)N1CCN(c2ncc(OCc3ccc(NC(=O)C(C)(C)C)cc3)cn2)CC1", "note": "[Example 15, tert-butyl 4-(5-(4-pivalamido-benzyloxy)pyrimidin-2-yl)piperazine-1-carboxylate]", "activation at 30 µM": 80}
{"smiles": "CNS(=O)(=O)c1ccc(COc2cnc(N3CCN(C(=O)OC(C)(C)C)CC3)nc2)cc1", "note": "[Example 16, tert-butyl 4-(5-(4-(N-methyl-sulfamoyl)benzyloxy)pyrimidin-2-yl)piperazine-1-carboxylate]", "activation at 30 µM": 57}
{"smiles": "C[C@@H]1CN(C(=O)OC(C)(C)C#N)CCN1c1ncc(OCc2ccc(S(C)(=O)=O)cc2)cn1", "note": "[Example 71, (R)-2-cyanopropan-2-yl 3-methyl-4-(5-(4-(methylsulfonyl)benzyloxy)pyrimidin-2-yl)piperazine-1-carboxylate]", "activation at 30 µM": 73}
{"smiles": "Cc1cc(COc2cnc(N3CCN(C(=O)OC(C)(C)C)CC3)nc2)ccc1C(=O)NC(C)C", "note": "[Example 54, Tert-butyl 4-(5-(4-(isopropylcarbamoyl)-3-methylbenzyloxy)pyrimidin-2-yl)piperazine-1-carboxylate]", "activation at 30 µM": 51}
{"smiles": "CC(C)(C)OC(=O)N1CCN(c2ncc(OCc3ccc(-n4cccn4)nc3)cn2)CC1", "note": "[Example 5, tert-butyl 4-(5-((6-(1H-pyrazol-1-yl)pyridin-3-yl)methoxy)pyrimidin-2-yl)piperazine-1-carboxylate]", "activation at 30 µM": 82}
{"smiles": "C[C@@H]1CN(c2noc(C(F)(F)F)n2)CCN1c1ncc(OCc2ccc(S(C)(=O)=O)cc2)cn1", "note": "[Example 90, (R)-3-(3-methyl-4-(5-(4-(mcthylsulfonyl)bcnzyloxy)pyrimidin-2-yl)pipcrazin-1-yl)-5-(trifluoromcthyl)-1,2,4-oxadiazole]", "activation at 30 µM": 75}
{"smiles": "CC1(OC(=O)N2CCN(c3ncc(OCc4ccc(S(C)(=O)=O)cc4)cn3)CC2)COC1", "note": "[Example 79, 3-Methyloxetan-3-yl 4-(5-(4-(methylsulfonyl)benzyloxy)pyrimidin-2-yl)piperazine-1-carboxylate]", "activation at 30 µM": 37}
{"smiles": "CC(OC(=O)N1CCN(c2ncc(OCc3ccncc3C#N)cn2)CC1)C(F)(F)F", "note": "(stereo not drawn) [Example 68, 1,1,1-trifluoropropan-2-yl 4-(5-((3-cyanopyridin-4-yl)methoxy)pyrim-idin-2-yl)piperazine-1-carboxylate]", "activation at 30 µM": 169}
{"smiles": "CNC(=O)c1ccc(COc2cnc(N3CCN(C(=O)OC(C)(C)C)CC3)nc2)cc1", "note": "[Example 45, tert-butyl 4-(5-(4-(methylcarba-moyl)benzyloxy)pyrimidin-2-yl)piperazine-1-carboxylate]", "activation at 30 µM": 142}
{"smiles": "Cc1cc(COc2cnc(N3CCN(C(=O)OC(C)(C)C)CC3)nc2)ccc1S(C)(=O)=O", "note": "[Example 37, tert-butyl 4-(5-(3-methyl-4-(methylsulf-onyl)benzyl-oxy)pyrimi-din-2-yl)piperazine-1-carboxylate]", "activation at 30 µM": 52}
{"smiles": "CS(=O)(=O)c1ccc(COc2cnc(N3CCN(C(=O)OC4CCC4)CC3)nc2)cc1", "note": "[Example 63, Cyclobutyl 4-(5-(4-(methylsulfonyl)benzyloxy)pyrimidin-2-yl)piperazine-1-carboxylate]", "activation at 30 µM": 52}
{"smiles": "C[C@@H]1CN(C(=O)OC2CCC2)CCN1c1ncc(OCc2ccc(S(C)(=O)=O)cc2)cn1", "note": "[Example 64, (R)-cyclobutyl 3-methyl-4-(5-(4-(methylsulf-onyl)benzyl-oxy)pyrimi-din-2-yl)piperazine-1-carboxylate]", "activation at 30 µM": 57}
{"smiles": "C[C@@H]1CN(C(=O)OC2(C(F)(F)F)COC2)CCN1c1ncc(OCc2ccc(S(C)(=O)=O)cc2)cn1", "note": "[Example 110, (R)-3-(trifluoromethyl) oxetan-3-yl 3-mcthyl-4-(5-(4-(mcthylsulfonyl)benzyloxy)pyrimidin-2-yl)piperazine-1-carboxylate]", "activation at 30 µM": 55}
{"smiles": "CN1CCN(C(=O)c2ccc(COc3cnc(N4CCN(C(=O)OC(C)(C)C)CC4)nc3)cc2)CC1", "note": "[Example 51, tert-butyl 4-(5-(4-(4-methylpiper-azine-1-carbonyl)benz-yloxy)pyrimi-din-2-yl)piperazine-1-carboxylate]", "activation at 30 µM": 42}
{"smiles": "CC(C)(C)OC(=O)N1CCN(c2ncc(OCc3ccc(S(=O)(=O)C4CC4)cc3)cn2)CC1", "note": "[Example 84, Tert-butyl 4-(5-(4-(cyclopropyl-sulfonyl)benzyloxy)pyrimidin-2-yl)pipcrazinc-1-carboxylate]", "activation at 30 µM": 48}
{"smiles": "CC(C)(C)OC(=O)N1CCN(c2ncc(OCc3ccc(S(C)(=O)=O)cn3)cn2)CC1", "note": "[Example 31, tert-butyl 4-(5-((5-(methylsulfonyl)pyridin-2-yl)methoxy)pyrimidin-2-yl)piperazine-1-carboxylate]", "activation at 30 µM": 86}
{"smiles": "CC(C)(C)OC(=O)N1CCN(c2ncc(OCc3ccc(-n4cncn4)cc3)cn2)CC1", "note": "[Example 2, tert-butyl 4-(5-(4-(1H-1,2,4-triazol-1-yl)benzyl-oxy)pyrimidin-2-yl)piperazine-1-carboxylate]", "activation at 30 µM": 131}
{"smiles": "C[C@@H]1CN(C(=O)OC2(C)CC2)CCN1c1ncc(OCc2ccc(S(C)(=O)=O)cc2)cn1", "note": "[Example 61, (R)-1-methylcyclo-propyl 3-methyl-4-(5-(4-(methylsulfonyl)benzyloxy)pyrimidin-2-yl)piperazine-1-carboxylate]", "activation at 30 µM": 91}
{"smiles": "CC(C)(C)OC(=O)N1CCN(c2ncc(OCc3ccc(S(C)(=O)=O)nc3)cn2)CC1", "note": "[Example 30, Tert-butyl 4-(5((6-(methylsulfonyl)pyridin-3-yl)methoxy)pyrimidin-2-yl)piperazine-1-carboxylate]", "activation at 30 µM": 86}
{"target": "T1, human GPR119", "experiment": "Cyclic AMP (HTRF cAMP) assay for human GPR119, Method A", "assay_type": "cell-based", "conditions": "Method A; HEK 293s cells over-expressing human GPR119; midpoint of dose response curve; selected examples", "units": {"EC50": "µM"}}
{"smiles": "CC(OC(=O)N1CCN(c2ncc(OCc3ccc(S(C)(=O)=O)cc3)cn2)[C@H](C)C1)C(F)(F)F", "note": "(stereo partly drawn) [Example 67, (3R)-1,1,1-trifluoropropan-2-yl 3-methyl-4-(5-(4-(methylsulfonyl)benzyloxy)pyrim-idin-2-yl)piperazine-1-carboxylate]", "EC50": 0.039}
{"smiles": "C[C@@H]1CN(c2noc(C(F)(F)F)n2)CCN1c1ncc(OCc2ccc(S(C)(=O)=O)cc2)cn1", "note": "[Example 90, (R)-3-(3-methyl-4-(5-(4-(mcthylsulfonyl)bcnzyloxy)pyrimidin-2-yl)pipcrazin-1-yl)-5-(trifluoromcthyl)-1,2,4-oxadiazole]", "EC50": 0.026}
{"smiles": "Cc1cc(COc2cnc(N3CCN(C(=O)OC(C)(C)C)CC3)nc2)ccc1S(C)(=O)=O", "note": "[Example 37, tert-butyl 4-(5-(3-methyl-4-(methylsulf-onyl)benzyl-oxy)pyrimi-din-2-yl)piperazine-1-carboxylate]", "EC50": 0.02}
{"target": "T1, human GPR119", "experiment": "Cyclic AMP (HTRF cAMP) assay for human GPR119, Method A", "assay_type": "cell-based", "conditions": "human GPR119 cAMP assay; top concentration 30 μM"}
{"smiles": "N#Cc1cnccc1COc1cnc(N2CCN(C(=O)OC3CCOC3)CC2)nc1", "note": "(stereo not drawn) [tetrahydrofuran-3-yl 4-[5-[(3-cyano-4-pyridyl)methoxy]pyrimidin-2-yl]piperazine-1-carboxylate]", "significant activity at a top concentration of 30 μM": "did not show significant activity"}
{"smiles": "CN1CCC(N(C)C(=O)c2ccc(COc3cnc(N4CCN(C(=O)OC(C)(C)C)CC4)nc3)cc2)CC1", "note": "[tert-butyl 4-[5-[[4-[methyl-(1-methyl-4-piperidyl)carbamoyl]phenyl]methoxy]pyrimidin-2-yl]piperazine-1-carboxylate]", "significant activity at a top concentration of 30 μM": "did not show significant activity"}
{"smiles": "C[C@@H]1CN(C(=O)OC2CCOCC2)CCN1c1ncc(OCc2ccc(S(C)(=O)=O)cc2)cn1", "note": "[tetrahydropyran-4-yl (3R)-3-methyl-4-[5-[(4-methylsulfonylphenyl)methoxy]pyrimidin-2-yl]piperazine-1-carboxylate]", "significant activity at a top concentration of 30 μM": "did not show significant activity"}
{"smiles": "CN1CCC(NC(=O)c2ccc(COc3cnc(N4CCN(C(=O)OC(C)(C)C)CC4)nc3)cc2)CC1", "note": "[tert-butyl 4-[5-[[4-[(1-methyl-4-piperidyl)carbamoyl]phenyl]methoxy]pyrimidin-2-yl]piperazine-1-carboxylate]", "significant activity at a top concentration of 30 μM": "did not show significant activity"}
{"smiles": "CS(=O)(=O)c1ccc(COc2cnc(N3CCN(C(=O)OC4CCOC4)CC3)nc2)cc1", "note": "(stereo not drawn) [tetrahydrofuran-3-yl 4-[5-[(4-methylsulfonylphenyl)methoxy]pyrimidin-2-yl]piperazine-1-carboxylate]", "significant activity at a top concentration of 30 μM": "did not show significant activity"}
{"smiles": "COc1cc(COc2cnc(N3CCN(C(=O)OC(C)(C)C)CC3)nc2)cc(OC)n1", "note": "[tert-butyl 4-[5-[(2,6-dimethoxy-4-pyridyl)methoxy]pyrimidin-2-yl]piperazine-1-carboxylate]", "significant activity at a top concentration of 30 μM": "did not show significant activity"}
{"smiles": "CS(=O)(=O)c1ccc(COc2cnc(N3CCN(C(=O)OC4CCOCC4)CC3)nc2)cc1", "note": "[tetrahydropyran-4-yl 4-[5-[(4-methylsulfonylphenyl)methoxy]pyrimidin-2-yl]piperazine-1-carboxylate]", "significant activity at a top concentration of 30 μM": "did not show significant activity"}
{"smiles": "Cc1cc(COc2cnc(N3CCN(C(=O)OC(C)(C)C)CC3)nc2)ccn1", "note": "[tert-butyl 4-[5-[(2-methyl-4-pyridyl)methoxy]pyrimidin-2-yl]piperazine-1-carboxylate]", "significant activity at a top concentration of 30 μM": "did not show significant activity"}
